Consider two compounds from ChEMBL document CHEMBL1131105, “Anthracene-9,10-diones as potential anticancer agents: bacterial mutation studies of amido-substituted derivatives reveal an unexpected lack of mutagenicity” (1998).

Common to all, as to format: functional, Salmonella enterica subsp. enterica serovar Typhimurium
The subject of experiment [1] is Salmonella typhimurium. Description: Bacterial mutagenicity was measured against Salmonella Typhimurium TA1538 at dose range of 0-5 ug/plate.
Experiment [2] relates to Salmonella typhimurium. Description: Bacterial mutagenicity was measured against Salmonella Typhimurium TA97a at dose range of 0-400 ug/plate.
Experiment [3] relates to Salmonella typhimurium. Briefly: Bacterial mutagenicity was measured against Salmonella Typhimurium TA98 at dose range of 0-10 ug/plate.
For experiment [4], the system named is Salmonella typhimurium. Description: Bacterial mutagenicity was measured against Salmonella Typhimurium TA1538 at dose range of 0-200 ug/plate.
Experiment [5] has as its system Salmonella typhimurium. Description: Bacterial mutagenicity was measured against Salmonella Typhimurium TA98 at dose range of 0-20 ug/plate.

Regarding `O=C1c2c(O)ccc(O)c2C(=O)c2c(NCCNCCO)ccc(NCCNCCO)c21` [MITOXANTRONE], the Slope in the experiment on Salmonella typhimurium [1] came to 3.52 mutants ug-1; in the experiment with Salmonella typhimurium [2], 0.01 mutants ug-1; with Salmonella typhimurium [3], 3.04 mutants ug-1.

With `C(=N\NC1=NCCN1)/c1c2ccccc2c(/C=N/NC2=NCCN2)c2ccccc12` [BISANTRENE], the Slope worked out at 0.2 mutants ug-1 in the experiment with Salmonella typhimurium [4], 1.83 mutants ug-1 with Salmonella typhimurium [2] and 0.33 mutants ug-1 with Salmonella typhimurium [5].
